Structures can show the parent of a compound that is named as a salt. Where two headings read alike, the source gives them in different places.
Tested on: iCell endothelial cells (human iPSC-derived ECs)
Assay: High-content imaging cytotoxicity in iCell endothelial cells, 24 h
Assay type: cell-based
Conditions: Homo sapiens, Endothelial cell, iPSC-EC, 24 hr; for viability at 0.1 µM / activity at 0.1 µM: 0.10 µM; for minimal effective concentration: top concentration 100.00 µM
Experimental: The culture conditions of iCell®-endothelial cells were as reported elsewhere ([Iwata et al. 2017]). Briefly, T75 flasks were coated with a fibronectin solution ( 3 μg/cm^2 ) followed by incubation for 1–2 h. Cells were thawed for 3 min in a 37°C water bath. Thawed cells were added to maintenance medium made of VascuLife VEGF Medium Complete Kit, excluding the supplied FBS, and iCell® Endothelial Cells Medium Supplement. The final formulation of the maintenance medium is detailed in ([Iwata et al. 2017]). The aliquoted fibronectin solution was aspirated from the T75 flasks, and cells were seeded at 1.0×10^4 cells/cm^2 . Cells were maintained at 37°C and 5% CO2 with media changes occurring every 2 d and passaged every 3–4 d using TrypLE™ Express. All experiments were conducted on cells between passages 1 and 5.
Cytotoxicity was assessed in parallel experiments. For iCell®-endothelial cells, 384-well plates were coated with a 30μg/mL fibronectin solution ( 10μL/well ) and incubated for 2 h at RT. iCell®-endothelial cells were dissociated with TrypLE™ Express and prepared into a solution to achieve 750 cells per well and 50μL of total volume. The fibronectin solution was removed from the 384-well plate, and cells were plated. For HUVECs, similar dissociation and the same cell density were used for plating with the exclusion of the fibronectin solution. Cells were incubated at 37°C and 5% CO2 until a monolayer was formed, typically 3–5 d. 2×PCB plates were created with the requisite maintenance medium. Before treatment, the medium in the wells was exchanged to 25μL/well of fresh maintenance medium. 2×PCB chemical solutions ( […] ) were added. After 24 h incubation at 37°C and 5% CO2 , cells were stained with Hoechst 33342, MitoTracker™ Orange, and calcein AM for 20 min before replacing the staining media with FluoroBright DMEM. Cell culture plates were imaged using the ImageXpress® Micro Confocal high-content imaging system (Molecular Devices). Images were acquired at 10× magnification with DAPI, TRITC, or FITC filter (Hoechst 33342, MitoTracker™, or calcein AM, respectively). The multiwavelength cell scoring applications module in MetaXpress™ (Molecular Devices) was used to analyze the images.
Phenotypic responses were quantitatively assessed using concentration–response modeling as detailed elsewhere ([Sirenko et al. 2017]). Briefly, phenotypic readouts were normalized to vehicle controls and fit to a four-parameter logistic model in R studio software (version 3.1.1; R Development Core Team). Following EPA guidance on dose–response modeling, a cutoff of one standard deviation across means of vehicle control (i.e., 0.5% vol/vol DMSO in cell culture media) wells was applied to determine the point-of-departure (POD) values ([U.S. EPA 2012]). In the absence of a concentration–response, the highest tested concentration (i.e., 100μM ) was assigned as “no observable adverse effect level.” The concentration–response assessment R script, as well as templates for vehicle and concentration–response data, are available as a supplement to Sirenko et al. ([2017]). The ability of physicochemical properties to predict differences in PODs were evaluated by multiregression and mixed-effects modeling using R.

[1] = 0.00 µM control = 100.00, read-out: endo.cyto.24hr
[2] = 0.00 µM control = 100.00, read-out: endo.mito.24hr
[3] = 0.00 µM control = 100.00, read-out: endo.mitoint.24hr
[4] = 0.00 µM control = 100.00, read-out: endo.nma.24hr
[5] = 0.00 µM control = 100.00, read-out: endo.tc.24hrs
[6] = read-out: endo.mitoint.24hr POD

Row | Structure (SMILES) | viability at 0.01 µM [1] [%] | activity at 0.01 µM [2] [%] | activity at 0.01 µM [3] [%] | activity at 0.01 µM [4] [%] | viability at 0.01 µM [5] [%] | viability at 0.1 µM [1] [%] | activity at 0.1 µM [2] [%] | activity at 0.1 µM [3] [%] | activity at 0.1 µM [4] [%] | viability at 0.1 µM [5] [%] | viability at 1 µM [1] [%] | activity at 1 µM [2] [%] | activity at 1 µM [3] [%] | activity at 1 µM [4] [%] | viability at 1 µM [5] [%] | viability at 10 µM [1] [%] | activity at 10 µM [2] [%] | activity at 10 µM [3] [%] | activity at 10 µM [4] [%] | viability at 10 µM [5] [%] | other results
1 | Oc1cccc(-c2ccc(Cl)cc2)c1 [3'-OH PCB3] | 93.4 | 93.6 | 123 | 101 | 93.4 | 99.8 | 100 | 111 | 97.6 | 99.8 | 98.9 | 99.4 | 118 | 97.4 | 98.9 | 102 | 102 | 129 | 98.3 | 102 | viability at 100 µM [1]: 45.2%; activity at 100 µM [2]: 58%; activity at 100 µM [3]: 98.4%; activity at 100 µM [4]: 90.1%; viability at 100 µM [5]: 79.2%; minimal effective concentration (read-out: endo.cyto.24hr POD): 45.8 µM; minimal effective concentration (read-out: endo.mito.24hr POD): 45.8 µM; minimal effective concentration [6]: 100 µM; minimal effective concentration (read-out: endo.nma.24hr POD): 9.75 µM; minimal effective concentration (read-out: endo.tc.24hrs POD): 53.2 µM
2 | O=S(=O)(O)Oc1cccc(-c2ccc(Cl)cc2)c1 [3'-yl PCB 3 sulfate] | 101 | 101 | 106 | 99.3 | 101 | 93.7 | 93.7 | 105 | 103 | 93.7 | 97.2 | 97.2 | 105 | 102 | 97.2 | 98.7 | 98.8 | 111 | 99.5 | 98.7 | viability at 100 µM [1]: 98.5%; activity at 100 µM [2]: 98.5%; activity at 100 µM [3]: 103%; activity at 100 µM [4]: 97.4%; viability at 100 µM [5]: 98.5%; minimal effective concentration (read-out: endo.cyto.24hr POD): 100 µM; minimal effective concentration (read-out: endo.mito.24hr POD): 100 µM; minimal effective concentration [6]: 100 µM; minimal effective concentration (read-out: endo.nma.24hr POD): 100 µM; minimal effective concentration (read-out: endo.tc.24hrs POD): 100 µM
3 | O=S(=O)(O)Oc1cc(-c2ccccc2)ccc1Cl [3-yl PCB 3 sulfate] | 93.7 | 93.8 | 120 | 104 | 93.7 | 93 | 93.3 | 105 | 104 | 93 | 102 | 103 | 104 | 97.9 | 102 | 96.5 | 96.5 | 104 | 99.6 | 96.5 | viability at 100 µM [1]: 96.6%; activity at 100 µM [2]: 96.5%; activity at 100 µM [3]: 98.4%; activity at 100 µM [4]: 99.8%; viability at 100 µM [5]: 96.6%; minimal effective concentration (read-out: endo.cyto.24hr POD): 100 µM; minimal effective concentration (read-out: endo.mito.24hr POD): 100 µM; minimal effective concentration [6]: 100 µM; minimal effective concentration (read-out: endo.nma.24hr POD): 100 µM; minimal effective concentration (read-out: endo.tc.24hrs POD): 100 µM

From paper PMC7377239, “Cardiovascular Effects of Polychlorinated Biphenyls and Their Major Metabolites” (Environmental Health Perspectives, 2020)
